# Experimental data: patent US8394929B2, “Nogo receptor-mediated blockade of axonal growth” (Yale University, priority 2000, dated 2013)
# Like-named read-outs stand apart in the source and are kept apart here.
# Tested on: GST-Nogo-66 inhibition of neurite outgrowth
# Assay: Blockade of Nogo-induced inhibition of neurite outgrowth in chick DRG neurons
# Assay type: cell-based
# Experimental: For all experiments involving cell culture, the following methods were employed. The culture of embryonic chick E10 and E12 dorsal root ganglion explants and dissociated neurons utilized methods described for E7 dorsal root ganglion cultures (Takahashi et al., (1998) Nature Neurosci. 1, 487-493; Takahashi et al., (1999) Cell 99, 59-69; Goshima et al., (1995) Nature 376, 509-514; Jin & Strittmatter, (1997) J. Neurosci. […]). NGF-differentiated PC12 cells were cultured as described (Strittmatter et al., (1994) J. Neurosci. 14, 2327-2338). Embryonic spinal cord explants (rat E10 or chick E5) were cultured for 7-14 days in the presence of PDGF-AA to induce differentiation of some cells into mature oligodendrocytes (Vartanian et al., (1999) Proc. Natl. Acad. Sci. USA 96, 731-735). The procedure for growth cone collapse assays is identical to that for analysis of Sema3A-induced growth cone collapse (Takahashi et al., (1998) Nature Neurosci. 1, 487-493; Takahashi et al., (1999) Cell 99, 59-69; Goshima et al., (1995) Nature 376, 509-514; Jin & Strittmatter, (1997) J. Neurosci. 17, 6256-6263). The method for analysis of total neurite outgrowth has also been described (Goshima et al., (1995) Nature 376, 509-514; Jin & Strittmatter, (1997) J. Neurosci. 17, 6256-6263; Strittmatter et al., (1994) J. Neurosci. 14, 2327-2338). In outgrowth assays, proteins and peptides were added one hour after plating to minimize any effect on the total number of adherent cells. To test the effect of substrate-bound GST or GST-Nogo, the protein solutions were dried on poly-L-lysine coated glass, washed and then coated with laminin. For E12 cultures, the neuronal identity of cells was verified by staining with anti-neurofilament antibodies (2H3, Develomental Studies Hybridoma Bank) and neurites were traced by observation of rhodamine-phalloidin staining of F-actin in processes.
# Peptide 140 was tested for its ability to neutralize neurite outgrowth inhibition caused by the addition of GST fused to residues #1055-1120 of hNogoA (designated Nogo-66 in FIG. 16e). Plastic chamber slides were coated with 100 μg ml^−1 poly-L-lysine, washed, and dried. 3 μl drops of PBS containing GST-hNogoA(residues #1055-1120) were spotted and dried. Slides were then rinsed and coated with 10 μg ml fs24^−1 laminin before addition of dissociated E12 chick DRGs. Peptide 140 was added at the time of cell plating. Cultures were grown for 5-7 h after which neurite outgrowth was assessed.
# Although the role of the GPI anchor may be to regulate NgR cellular compartmentalization, another possible role for the GPI linkage is to provide a NgR cleavage site. Cleaving NgR could serve to affect hNogo-A (1055-1120) signaling by rendering a neuron insensitive to hNogo-A (1055-1120) and by releasing soluble NgR that could then act on adjacent cells to modulate hNogo-A (1055-1120) signaling. To determine if soluble mNgR modulates hNogo-A (1055-1120)-dependent inhibition, a soluble mNgR was generated by inserting a truncated cDNA encoding mNgR residues 1-348 in frame with a myc-His carboxy tag into pcDNA3.1. The resulting plasmid expressing mNgREcto was transfected into HEK293T cells, and conditioned media containing mNgREcto protein was collected. To test the effect of mNgREcto on Nogo signaling, E13 dissociated DRGs were plated in the presence of hNogo-A (1055-1120) or myelin. The inhibitors were presented in either soluble or substrate-bound forms. For neurite outgrowth assays on hNogo-A (1055-1120) or myelin substrates, Permanox chamber slides were coated with 100μ, fs24 g ml^−1 poly-L-Lysine, washed, and then 3-μl drops of phosphate-buffered saline (hereinafter “PBS”) containing 0, 10, 50, or 150 ng of GST-hNogo-A (1055-1120) or myelin were spotted and dried. GST-hNogo-A (1055-1120) and myelin were prepared as previously described (GrandPre et al., supra; Fournier et al., J. Cell Biol. 149:411-421, 2000). After three PBS washes, slides were coated with 10 μg ml^−1 laminin. […]
Molecule,blockade of Nogo-induced neurite outgrowth inhibition (in words),blockade of Nogo-induced neurite outgrowth inhibition (in words) (listed as 2-41 fragment),blockade of Nogo-induced neurite outgrowth inhibition (in words) (listed as NgREcto)
"Pep2-41: 2-41 fragment of the 66 amino acid region of Nogo, acetylated and amidated at the termini (Ac-RIYKGVIQAIQKSDEGHPFRAYLESEVAISEELVQKYSNS-NH2)",can reverse the inhibition of neurite outgrowth,blocks,–
"Peptide 140: synthetic peptide of amino acids #1055-1094 of the human NogoA protein, acetylated and amidated at the termini (Ac-RIYKGVIQAIQKSDEGHPFRAYLESEVAISEELVQKYSNS-NH2; UniProt Q9NQC3 1055-1094, looked up, fragment)",extensive outgrowth is observed,–,–
"NgR-ecto: secreted fragment of amino acid residues 1-348 of the murine NgR, in HEK293T conditioned medium (protein, left off: small tags and cut ends, secreted fragment of amino acid residues 1-348 of the murine NgR, in HEK293T conditioned medium) CPGACVCYNEPKVTTSCPQQGLQAVPTGIPASSQRIFLHGNRISHVPAASFQSCRNLTILWLHSNALARIDAAAFTGLTLLEQLDLSDNAQLHVVDPTTFHGLGHLHTLHLDRCGLRELGPGLFRGLAALQYLYLQDNNLQALPDNTFRDLGNLTHLFLHGNRIPSVPEHAFRGLHSLDRLLLHQNHVARVHPHAFRDLGRLMTLYLFANNLSMLPAEVLMPLRSLQYLRLNDNPWVCDCRARPLWAWLQKFRGSSSEVPCNLPQRLADRDLKRLAASDLEGCAVASGPFRPIQTSQLTDEELLSLPKCCQPDAADKASVLE",blocks Nogo-66-induced inhibition of neurite outgrowth,–,partially reversed
